Assay results from patent publication US10329295B2, “Pyrrolotriazine inhibitors of IRAK4 activity” (MERCK SHARP & DOHME CORP., priority 2015, dated 2019).
Where a name gives a salt, the structure may show the parent alone.

Biological target: GST tagged IRAK4 (Homo sapiens (Human), UniProt Q9NWZ3)
Assay: IRAK4 Kinase Assay (IMAP fluorescence polarization)
Format: biochemical
Conditions: 0.5 nM GST tagged IRAK4, 100 μM ATP, 30 minutes at 25° C.
Method in brief: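 Reactions contained 0.5 nM GST-IRAK4, 100 nM fluorescent peptide substrate and 100 μM ATP in 10 mM Tris-HCl pH 7.2 with 1 mM MgCl2, and were started with ATP. After 30 minutes at 25° C they were stopped with IMAP reagent. Substrate phosphorylation was read as the change in fluorescence polarization.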

Chain of GST tagged IRAK4 (Q9NWZ3 whole entry): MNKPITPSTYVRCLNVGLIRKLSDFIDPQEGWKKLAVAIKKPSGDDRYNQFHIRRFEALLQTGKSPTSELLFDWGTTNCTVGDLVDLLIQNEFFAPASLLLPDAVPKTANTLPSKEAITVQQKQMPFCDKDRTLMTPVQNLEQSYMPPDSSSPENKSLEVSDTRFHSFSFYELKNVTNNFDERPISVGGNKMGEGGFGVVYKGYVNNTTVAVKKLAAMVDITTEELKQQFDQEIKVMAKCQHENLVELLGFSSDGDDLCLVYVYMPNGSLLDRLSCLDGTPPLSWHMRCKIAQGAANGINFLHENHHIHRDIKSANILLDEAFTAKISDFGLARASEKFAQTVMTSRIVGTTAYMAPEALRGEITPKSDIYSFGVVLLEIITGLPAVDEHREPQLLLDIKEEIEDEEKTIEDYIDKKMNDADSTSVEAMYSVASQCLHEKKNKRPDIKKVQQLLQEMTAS

SMILES | IC50 [µM]
Cn1cc(NC(=O)c2ccc3cnc(N4CCNCC4)nn23)c(C(F)F)n1 [Example 11, N-[3-(difluoromethyl)-1-methyl-1H-pyrazol-4-yl]-2-piperazin-1-ylpyrrolo[2,1-f][1,2,4]triazine-7-carboxamide trifluoroacetate] | 0.003
Cn1cc(NC(=O)c2ccc3cnc(N4C5CCC4CNC5)nn23)c(C#N)n1 [Example 111, N-(3-cyano-1-methyl-1H-pyrazol-4-yl)-2-(3,8-diazabicyclo[3.2.1]oct-8-yl)pyrrolo[2,1-f][1,2,4]triazine-7-carboxamide trifluoroacetate] | 0.012
Cn1cc(NC(=O)c2ccc3cnc(N[C@@H]4CCCC(F)(F)[C@@H]4N)nn23)c(C#N)n1 [Example 98, 2-{[(1R,2R)-2-amino-3,3-difluorocyclohexyl]amino}-N-(3-cyano-1-methyl-1H-pyrazol-4-yl)pyrrolo[2,1-f][1,2,4]triazine-7-carboxamide trifluoroacetate] | 0.086
Cn1cc(NC(=O)c2ccc3cnc(N[C@@H]4CCCC[C@@H]4N)nn23)c(Br)n1 [Example 66, 2-{[(1R,2S)-2-aminocyclohexyl]amino}-N-(3-bromo-1-methyl-1H-pyrazol-4-yl)pyrrolo[2,1-f][1,2,4]triazine-7-carboxamide trifluoroacetate] | 0.001
Cn1cc(NC(=O)c2ccc3cnc(N4C[C@@H]5CC[C@H]4CN5)nn23)c(C(F)(F)F)n1 (single isomer, unassigned) [Example 170, 2-[(1S,4S)- or (1R,4R)-2,5-diazabicyclo[2.2.2]oct-2-yl]-N-[1-methyl-3-(trifluoromethyl)-1H-pyrazol-4-yl]pyrrolo[2,1-f][1,2,4]triazine-7-carboxamide] | 0.035
Cn1cc(NC(=O)c2ccc3cnc(N4C[C@H](N)C[C@@H](F)C4)nn23)c(C(F)(F)F)n1 [Example 149, 2-[(3R,5R)-3-amino-5-fluoropiperidin-1-yl]-N-[1-methyl-3-(trifluoromethyl)-1H-pyrazol-4-yl]pyrrolo[2,1-f][1,2,4]triazine-7-carboxamide trifluoroacetate] | 0.0008
N#Cc1ccccc1NC(=O)c1ccc2cnc(N3CCC[C@@H](N)C3)nn12 [Example 51, 2-[(3R)-3-aminopiperidin-1-yl]-N-(2-cyanophenyl)pyrrolo[2,1-f][1,2,4]triazine-7-carboxamide trifluoroacetate] | 0.157
Cn1cc(NC(=O)c2ccc3cnc(N4C[C@@H](N)C[C@@H](F)C4)nn23)c(C(F)F)n1 [Example 151, 2-[(3S,5R)-3-amino-5-fluoropiperidin-1-yl]-N-[3-(difluoromethyl)-1-methyl-1H-pyrazol-4-yl]pyrrolo[2,1-f][1,2,4]triazine-7-carboxamide formate] | 0.0008
Cn1cc(NC(=O)c2ccc3cnc(N[C@H]4CNC[C@H](F)C4)nn23)c(C(F)(F)F)n1 [Example 162, 2-{[(3R,5R)-5-fluoropiperidin-3-yl]amino}-N-[1-methyl-3-(trifluoromethyl)-1H-pyrazol-4-yl]pyrrolo[2,1-f][1,2,4]triazine-7-carboxamide trifluoroacetate] | 0.018
O=C(Nc1ccccc1Cl)c1ccc2cnc(N3C[C@@H]4CC[C@H]3CN4)nn12 (single isomer, unassigned) [Example 65, N-(2-chlorophenyl)-2-[(1S,4S)- or (1R,4R)-2,5-diazabicyclo[2.2.2]oct-2-yl]pyrrolo[2,1-f][1,2,4]triazine-7-carboxamide trifluoroacetate] | 2.06
N#Cc1sccc1NC(=O)c1ccc2cnc(N3CC4CCC3CN4)nn12 (stereo not shown) [Example 22, N-(2-cyanothiophen-3-yl)-2-(2,5-diazabicyclo[2.2.2]oct-2-yl)pyrrolo[2,1-f][1,2,4]triazine-7-carboxamide trifluoroacetate] | 0.399
Cn1cc(NC(=O)c2ccc3cnc(N[C@@H]4CNC[C@@H](F)C4)nn23)c(C(F)F)n1 [Example 164, N-[3-(difluoromethyl)-1-methyl-1H-pyrazol-4-yl]-2-{[(3S,5S)-5-fluoropiperidin-3-yl]amino}pyrrolo[2,1-f][1,2,4]triazine-7-carboxamide] | 0.0005
Cn1cc(NC(=O)c2ccc3cnc(N4C[C@H]5CN[C@H](C5)C4)nn23)c(C(F)(F)F)n1 (single isomer, unassigned) [Example 101, 2-[(1S,5S)- or (1R,5R)-3,6-diazabicyclo[3.2.1]oct-3-yl]-N-[1-methyl-3-(trifluoromethyl)-1H-pyrazol-4-yl]pyrrolo[2,1-f][1,2,4]triazine-7-carboxamide] | 0.277
O=C(Nc1ccsc1Cl)c1ccc2cnc(N3C[C@@H]4CC[C@H]3CN4)nn12 (single isomer, unassigned) [Example 53, N-(2-chlorothiophen-3-yl)-2-[(1S,4S)- or (1R,4R)-2,5-diazabicyclo[2.2.2]oct-2-yl]pyrrolo[2,1-f][1,2,4]triazine-7-carboxamide trifluoroacetate] | 1.64
Cn1cc(NC(=O)c2ccc3cnc(N4C[C@H]5CN[C@H](C5)C4)nn23)c(C(F)F)n1 (single isomer, unassigned) [Example 104, 2-[(1S,5S)- or (1R,5R)-3,6-diazabicyclo[3.2.1]oct-3-yl]-N-[3-(difluoromethyl)-1-methyl-1H-pyrazol-4-yl]pyrrolo[2,1-f][1,2,4]triazine-7-carboxamide] | 0.028
Cn1cc(NC(=O)c2ccc3cnc(N4CC5CCC(C4)N5)nn23)c(C(F)(F)F)n1 [Example 82, 2-(3,8-diazabicyclo[3.2.1]oct-3-yl)-N-[1-methyl-3-(trifluoromethyl)-1H-pyrazol-4-yl]pyrrolo[2,1-f][1,2,4]triazine-7-carboxamide trifluoroacetate] | 0.032
CCn1cc(NC(=O)c2ccc3cnc(N[C@@H]4CCCC[C@@H]4N)nn23)cn1 [Example 166, 2-{[(1R,2S)-2-Aminocyclohexyl]amino}-N-(1-ethyl-1H-pyrazol-4-yl)pyrrolo[2,1-f][1,2,4]triazine-7-carboxamide] | 0.038
N[C@H]1CCCC[C@H]1Nc1ncc2ccc(C(=O)Nc3ccccc3Br)n2n1 [Example 32, 2-{[(1R,2S)-2-aminocyclohexyl]amino}-N-(2-bromophenyl)pyrrolo[2,1-f][1,2,4]triazine-7-carboxamide trifluoroacetate] | 0.011
N#Cc1ccccc1NC(=O)c1ccc2cnc(N[C@H]3CCCCNC3)nn12 (single isomer, unassigned) [Example 60, 2-[(3S)- or (3R)-azepan-3-ylamino]-N-(2-cyanophenyl)pyrrolo[2,1-f][1,2,4]triazine-7-carboxamide trifluoroacetate] | 0.008
Cn1cc(NC(=O)c2ccc3cnc(N[C@@H]4CCC(F)(F)C[C@@H]4N)nn23)c(C(F)F)n1 (single isomer, unassigned) [Example 139, 2-{[(1S,2R)- or (1R,2S)-2-amino-4,4-difluorocyclohexyl]amino}-N-[3-(difluoromethyl)-1-methyl-1H-pyrazol-4-yl]pyrrolo[2,1-f][1,2,4]triazine-7-carboxamide] | 0.003
Cn1cc(NC(=O)c2ccc3cnc(N[C@@H]4CNC[C@H](F)C4)nn23)c(C(F)F)n1 [Example 155, N-[3-(difluoromethyl)-1-methyl-1H-pyrazol-4-yl]-2-{[(3S,5R)-5-fluoropiperidin-3-yl]amino}pyrrolo[2,1-f][1,2,4]triazine-7-carboxamide] | 0.007
Cn1cc(NC(=O)c2ccc3cnc(N[C@H]4CC(F)(F)CC[C@H]4N)nn23)c(C(F)(F)F)n1 (single isomer, unassigned) [Example 127, 2-{[(1S,2R)- or (1R,2S)-2-amino-5,5-difluorocyclohexyl]amino}-N-[1-methyl-3-(trifluoromethyl)-1H-pyrazol-4-yl]pyrrolo[2,1-f][1,2,4]triazine-7-carboxamide trifluoroacetate] | 0.017
O=C(Nc1ccsc1C(F)(F)F)c1ccc2cnc(N3CCCNCC3)nn12 [Example 85, 2-(1,4-diazepan-1-yl)-N-[2-(trifluoromethyl)thiophen-3-yl]pyrrolo[2,1-f][1,2,4]triazine-7-carboxamide trifluoroacetate] | 2.64
O=C(Nc1ccccc1C(F)(F)F)c1ccc2cnc(N3C[C@H]4CC[C@@H]3CN4)nn12 (single isomer, unassigned) [Example 68, 2-[(1S,4S)- or (1R,4R)-2,5-diazabicyclo[2.2.2]oct-2-yl]-N-[2-(trifluoromethyl)phenyl]-pyrrolo[2,1-f][1,2,4]triazine-7-carboxamide trifluoroacetate] | 0.218
N[C@H]1CCCC[C@H]1Nc1ncc2ccc(C(=O)Nc3cscc3C(F)F)n2n1 [Example 42, 2-{[(1R,2S)-2-aminocyclohexyl]amino}-N-[4-(difluoromethyl)thiophen-3-yl]pyrrolo[2,1-f][1,2,4]triazine-7-carboxamide trifluoroacetate] | 0.004
N[C@H]1CCCC[C@H]1Nc1ncc2ccc(C(=O)Nc3ccsc3Cl)n2n1 [Example 30, 2-{[(1R,2S)-2-aminocyclohexyl]amino}-N-(2-chlorothiophen-3-yl)pyrrolo[2,1-f][1,2,4]triazine-7-carboxamide trifluoroacetate] | 0.003
Cn1cc(NC(=O)c2ccc3cnc(N[C@H]4CCC(F)(F)C[C@H]4N)nn23)c(C(F)F)n1 (single isomer, unassigned) [Example 129, 2-{[(1S,2R)- or (1R,2S)-2-amino-4,4-difluorocyclohexyl]amino}-N-[3-(difluoromethyl)-1-methyl-1H-pyrazol-4-yl]pyrrolo[2,1-f][1,2,4]triazine-7-carboxamide] | 3.65
O=C(Nc1ccsc1Br)c1ccc2cnc(N3CCCNCC3)nn12 [Example 37, N-(2-bromothiophen-3-yl)-2-(1,4-diazepan-1-yl)pyrrolo[2,1-f][1,2,4]triazine-7-carboxamide trifluoroacetate] | 1.67
